Data set [1] relates to CRBN neo-substrates IKZF1, IKZF3, GSPT1, and CK-1α. Description: Selectivity immunoblotting in SEM cells: CRBN neo-substrates. The settings on record: 2 μM, 8 h. In kind it is cell-based, human. The method, then: (§1) We conducted a global proteomic assay using tandem mass tags (TMT) labeled mass-spectrometry to unbiasedly quantify the protein change upon LLC0424 treatment in VCaP and RPMI-8402 cells. […] We further used SEM cell line to cross-validate the selectivity of LLC0424 for NSD2 over NSD1 and NSD3 as well as CRBN neo-substrates IKZF1, IKZF3, GSPT1, and CK-1α using immunoblotting. […] When we increased the treatment time of LLC0424 in SEM cells, we observed mild decrease of GSPT1 from 12 h (SI, Figure S3F).
After treatment, the cultured cells were collected and rinsed with phosphate-buffered saline (PBS) in room temperature. The cells were treated with RIPA buffers (ThermoFisher Scientific) supplemented with Halt Protease and Phosphatase Inhibitor Cocktail (ThermoFisher Scientific). After sonication and centrifugation, the total amount of protein in the cell lysates was measured by Pierce Bovine Serum Albumin Standard Pre-Diluted Set (ThermoFisher Scientific). After mixed with LDS-sample buffer (Invitrogen) supplemented with Sample Reducing Agent (Invitrogen) and heated in 70 °C for 10 min, equal amount of protein was loaded into NuPAGE 4–12%, Bis-Tris Protein Gel (ThermoFisher Scientific) or NuPAGE 3–8%, Tris-Acetate Protein Gel (ThermoFisher Scientific), and blotted with primary antibodies. […]

The next data set relates to RPMI-8402 cells. Nature of the data set: TMT global proteomics in RPMI-8402 cells. The settings on record: for Abundance Ratio (log2): (LLC0424) / (DMSO): RPMI-8402. The format is cell-based, human. The method, then: as §1
RPMI-8402 cells were plated at 10 × 10^6 cells per plate on 10 cm tissue culture plates overnight before treating with DMSO (control) or 2 μM LLC0424 with 3 replicates for each treatment. After 8 h, whole cell lysates were collected using RIPA buffer (ThermoFisher Scientific) and quantified using Pierce Bovine Serum Albumin Standard Pre-Diluted Set (ThermoFisher Scientific). Cell lysates were proteolyzed and labeled with TMT 6-plex Isobaric Label Reagent (ThermoFisher Scientific) according to the protocol from the manufacturer and subjected to 8 fractions of liquid chromatography–mass spectrometry (LC-MS)/MS analysis as described.[33] We plotted the results using graphpad prism. To gain protein changes with high confidence, we screened the results of (LC-MS)/MS analysis with the criteria of peptides number >4 and unique peptides number >1. […]
Figure S3. LLC0424 was a selective NSD2 degrader. […]

Data set [2] in a line: PK parameters in rats (LC/MS/MS). The conditions noted are these: rat, in vivo; for MRT last: read-out: MRT (0-t). From the text: Table S4. PK parameters of LLC0424 in rats a Route/dose T1/2 Tmax Cmax AUC(0-t) CL MRT Vss F(%) […]
aDetermined using LC/MS/MS. T1/2: elimination half-life; Tmax: time for maximum concentration; Cmax: maximum concentration; AUC: the area under the curve; CL: clearance; MRT: mean residence time; Vss: volume of distribution; F: oral

In a further data set the test system is SEM cells. Nature of the data set: RNA-seq global transcriptome analysis. In kind it is cell-based, human. The settings on record: 14 days of treatment, versus DMSO. The method, then:
NSD2 is the primary methyltransferase that transfers dimethyl to H3K36 in ALL with NSD2 gain-of-function mutation. Therefore, the effects of LLC0424 on H3K36me2 was evaluated in SEM and RPMI-8402 cells. […] Meanwhile, LLC0424 treatment also led to downregulation of H3K36Me2 in RPMI-8402 cells within 24 h (Figure 6B). […] We also conducted a colony formation assay to evaluate the effect of LLC0424 on the stem cell-like property of the leukemia cells. […] As LLC0424 leads to strong degradation of both NSD2-L and NSD2-S, the phenotypic changes upon LLC0424 treatment result from complete inactivation of NSD2 activity, including adaptor-like function of NSD2-S and SET-domain dependent enzymatic function of NSD2-L. The specific contributions of NSD2 isoforms warrant future investigation. To characterize the genes affected by LLC0424 treatment, we performed global transcriptome analysis of SEM cells treated by DMSO, LLC0424, or LLC0424N. […]
Total RNA was isolated from cells using the miRNeasy Mini Kit (Qiagen). […] Paired-end libraries were sequenced with the Illumina HiSeq 2500 (2 × 100 nucleotide read length) with sequence coverage to 15–20 M paired reads. […] Then we performed the analysis in R. First, EdgeR (edgeR_3.39.6) was used to perform read counts normalization and filtering (counts >10) and then Limma-Voom (limma_3.53.10) was used to analyze differential expression.

Where two headings read alike, the source gives them in different places.

What is called AUC(0-t) is exposure summed from dosing to a finite time, without extrapolation to infinity. The term Cmax denotes the maximum level reached in the sampled fluid or tissue. By Tmax is commonly meant the time at which the peak concentration occurs. Usually clearance stands for a measure of how efficiently the substance is removed, as volume per time. For orientation: half-life means the time needed for the level to fall by half in the phase considered. A higher half-life goes with slow loss. For orientation: bioavailability means dose-corrected exposure relative to a reference, in per cent. High values mean good availability, low ones poor availability. As to `O=C1CCC(N2C(=O)c3ccc(N4CCC(NC(=O)c5ccc(NC(=O)c6ccc(CN(C(=O)c7ccc8c(c7)OCC(=O)N8)C7CC7)cc6)cc5)CC4)cc3C2=O)C(=O)N1` (stereo not drawn) [compound 10l, N-Cyclopropyl-N-(4-((4-((1-(2-(2,6-dioxopiperidin-3-yl)-1,3-dioxoisoindolin-5-yl)piperidin-4-yl)carbamoyl)phenyl)carbamoyl)benzyl)-3-oxo-3,4-dihydro-2H-benzo[b][1,4]oxazine-7-carboxamide], the “CRBN neo-substrates protein level” value in data set [1] is on record as “remained unchanged”. The “Abundance Ratio (log2): (LLC0424) / (DMSO)” value with RPMI-8402 cells (protein accession P35579) was 0.04. In addition, in the data set with RPMI-8402 cells (protein accession P78527), the “Abundance Ratio (log2): (LLC0424) / (DMSO)” value is on record as -0.02. In the data set on RPMI-8402 cells (protein accession Q01082), the “Abundance Ratio (log2): (LLC0424) / (DMSO)” value is on record as 0.05. Moreover, in the data set on RPMI-8402 cells (protein accession Q13813), the “Abundance Ratio (log2): (LLC0424) / (DMSO)” value is recorded as 0.03. Besides, the “Abundance Ratio (log2): (LLC0424) / (DMSO)” value with RPMI-8402 cells (protein accession Q14204) is listed as 0.05. Further, in the data set with RPMI-8402 cells (RPMI-8402 cells, 2 μM), the “number of proteins significantly decreased in global proteomics” value is on record as 3. In addition, in data set [2] (iv, i.v. 2 mg/kg), the AUC(0-t) came out at 4320 ng·h/mL, the Cmax was determined as 7320 ng/mL, the time of peak concentration (Tmax) worked out at 0.083 h and the clearance is 7.58 mL/min/kg. Further, in data set [2] (iv, i.v. 2 mg/kg), the half-life was 126 min and the MRT last worked out at 1.28 h. Further, the Vd in data set [2] (iv, i.v. 2 mg/kg, read-out: Vss) came out at 0.763 L/kg. Also, in data set [2] (oral 10 mg/kg), the AUC(0-t) stood at 777 ng·h/mL, the highest level (Cmax) was 162 ng/mL, the Tmax is 2 h and the bioavailability stood at 3.67%. Moreover, in data set [2] (oral 10 mg/kg), the half-life is 91.2 min and the MRT last came out at 3.18 h. The “differentially expressed genes (transcriptome)” value in the data set with SEM cells is recorded as “over 326”.

These data come from PMC11094793, “Discovery of LLC0424 as a Potent and Selective in Vivo NSD2 PROTAC Degrader” (Journal of Medicinal Chemistry, 2024).
